Assay results reported in US10385022B2, “3-amino-pyridines as GPBAR1 agonists” (HOFFMANN-LA ROCHE INC., priority 2011, dated 2019).
pEC50: −log10 of the molar value. Structures can show the parent of a compound that is named as a salt.

molecular target: human GPBAR1 receptor (Homo sapiens (Human), UniProt Q8TDU6); test: functional cAMP assay in CHO-dhfr(minus) cells expressing human GPBAR1 receptors; format: cell-based; conditions: CHO-dhfr(minus) cells expressing human GPBAR1, 30 min at 30° C.
Sequence (Q8TDU6 whole entry): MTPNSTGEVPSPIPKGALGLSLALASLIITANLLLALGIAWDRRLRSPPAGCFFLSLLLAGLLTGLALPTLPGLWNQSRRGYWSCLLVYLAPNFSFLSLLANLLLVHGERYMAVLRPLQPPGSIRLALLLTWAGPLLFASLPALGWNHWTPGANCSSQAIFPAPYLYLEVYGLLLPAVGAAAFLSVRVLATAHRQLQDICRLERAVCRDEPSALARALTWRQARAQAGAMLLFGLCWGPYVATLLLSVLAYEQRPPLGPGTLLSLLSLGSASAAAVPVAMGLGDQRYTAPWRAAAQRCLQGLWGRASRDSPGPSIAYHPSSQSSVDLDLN
Description: The final clone was verified by DNA sequence analysis. The plasmid was transfected into CHO cells deficient in dihydrofolate reductase activity (CHO-dhfr-) using Lipofectamine plus (Invitrogen). Clones were isolated in limited dilution conditions and identified by activities in the cAMP assay using lithocholic acid as agonist.
EC50 values were determined using Activity Base analysis (ID Business Solution, Limited). […] Specificity for GPBAR1 was tested in non-transfected CHO cells in the same assay as above.

pEC50 | SMILES
6.47 | COc1cc(F)ccc1-c1ccncc1N(CC1CCCO1)C(=O)c1cc(C(F)(F)F)cc(S(C)(=O)=O)c1 (single isomer, unassigned; (+)) [Example 232, (+)-N-[4-(4-Fluoro-2-methoxy-phenyl)-pyridin-3-yl]-3-methanesulfonyl-N-[1-(tetrahydro-furan-2-yl)methyl]-5-trifluoromethyl-benzamide]
5.55 | COc1cc(F)ccc1-c1ccncc1N(CC1CCCCO1)C(=O)c1cc(C(F)(F)F)cc(S(C)(=O)=O)c1 (single isomer, unassigned; (+)) [Example 291, (+)-N-[4-(4-Fluoro-2-methoxy-phenyl)-pyridin-3-yl]-3-methanesulfonyl-N-[1-(tetrahydro-pyran-2-yl)methyl]-5-trifluoromethyl-benzamide]
7.27 | COc1cc(F)ccc1-c1ccncc1N(CC1CCCO1)C(=O)c1cc(C(F)(F)F)cc(S(C)(=O)=O)c1 (single isomer, unassigned; (-)) [Example 233, (−)-N-[4-(4-Fluoro-2-methoxy-phenyl)-pyridin-3-yl]-3-methanesulfonyl-N-[1-(tetrahydro-furan-2-yl)methyl]-5-trifluoromethyl-benzamide]
5.76 | COc1cc(F)ccc1-c1ccncc1N(CC1CCCCO1)C(=O)c1cc(C(F)(F)F)cc(S(C)(=O)=O)c1 (single isomer, unassigned; (-)) [Example 290, (−)-N-[4-(4-Fluoro-2-methoxy-phenyl)-pyridin-3-yl]-3-methanesulfonyl-N-[1-(tetrahydro-pyran-2-yl)methyl]-5-trifluoromethyl-benzamide]
7.66 | Cc1ccccc1-c1ccncc1N(C)C(=O)c1cc(C(F)(F)F)cc(C(F)(F)F)c1 [Example 1, N-Methyl-N-(4-o-tolyl-pyridin-3-yl)-3,5-bis-trifluoromethyl-benzamide]
6.14 | Cc1ccccc1-c1ccncc1N(C)C(=O)c1cccc(C(F)(F)F)c1 [Example 2, N-Methyl-N-(4-o-tolyl-pyridin-3-yl)-3-trifluoromethyl-benzamide]
6.04 | Cc1ccccc1-c1ccncc1N(C)C(=O)c1cccc(Cl)c1 [Example 3, N-Methyl-N-(4-o-tolyl-pyridin-3-yl)-3-chloro-benzamide]
6.61 | Cc1ccccc1-c1ccncc1N(C)C(=O)c1cc(C(F)(F)F)ccc1F [Example 4, 2-Fluoro-N-methyl-N-(4-o-tolyl-pyridin-3-yl)-5-trifluoromethyl-benzamide]
6.95 | Cc1ccccc1-c1ccncc1N(C)C(=O)c1ccc(F)c(C(F)(F)F)c1 [Example 5, 4-Fluoro-N-methyl-N-(4-o-tolyl-pyridin-3-yl)-5-trifluoromethyl-benzamide]
5.91 | Cc1ccccc1-c1ccncc1N(C)C(=O)c1cc(F)cc(F)c1 [Example 9, 3,5-Difluoro-N-methyl-N-(4-o-tolyl-pyridin-3-yl)-benzamide]
6.62 | Cc1ccccc1-c1ccncc1N(C)C(=O)c1ccc(Cl)c(Cl)c1 [Example 10, 3,4-Dichloro-N-methyl-N-(4-o-tolyl-pyridin-3-yl)-benzamide]
6.39 | Cc1ccccc1-c1ccncc1N(C)C(=O)c1ccc(F)c(Cl)c1 [Example 11, 3-Chloro-4-fluoro-N-methyl-N-(4-o-tolyl-pyridin-3-yl)-benzamide]
6.46 | Cc1ccccc1-c1cc(Cl)ncc1N(C)C(=O)c1cc(C(F)(F)F)cc(C(F)(F)F)c1 [Example 12, N-(6-Chloro-4-o-tolyl-pyridin-3-yl)-N-methyl-3,5-bis-trifluoromethyl-benzamide]
6.24 | Cc1ccccc1-c1cc(Cl)ncc1N(C)C(=O)c1cc(Cl)cc(Cl)c1 [Example 13, 3,5-Dichloro-N-(6-chloro-4-o-tolyl-pyridin-3-yl)-N-methyl-benzamide]
6.40 | COc1cc(-c2ccccc2C)c(N(C)C(=O)c2cc(C(F)(F)F)cc(C(F)(F)F)c2)cn1 [Example 14, N-(6-Methoxy-4-o-tolyl-pyridin-3-yl)-N-methyl-3,5-bis-trifluoromethyl-benzamide]
6.49 | CNc1cc(-c2ccccc2C)c(N(C)C(=O)c2cc(C(F)(F)F)cc(C(F)(F)F)c2)cn1 [Example 15, N-Methyl-N-(6-methylamino-4-o-tolyl-pyridin-3-yl)-3,5-bis-trifluoromethyl-benzamide]
6.74 | Cc1ccccc1-c1cc(N)ncc1N(C)C(=O)c1cc(C(F)(F)F)cc(C(F)(F)F)c1 [Example 16]
6.47 | Cc1ccccc1-c1cc(N2CCN(S(C)(=O)=O)CC2)ncc1N(C)C(=O)c1cc(C(F)(F)F)cc(C(F)(F)F)c1 [Example 17, N-[6-(4-Methanesulfonyl-piperazin-1-yl)-4-o-tolyl-pyridin-3-yl]-N-methyl-3,5-bis-trifluoromethyl-benzamide]
6.07 | COCCN(C)c1cc(-c2ccccc2C)c(N(C)C(=O)c2cc(C(F)(F)F)cc(C(F)(F)F)c2)cn1 [Example 18, N-{6-[(2-Methoxy-ethyl)-methyl-amino]-4-o-tolyl-pyridin-3-yl}-N-methyl-3,5-bis-trifluoro methyl-benzamide]

pEC50 | SMILES
6.47 | Cc1ccccc1-c1cc(C#N)ncc1N(C)C(=O)c1cc(C(F)(F)F)cc(C(F)(F)F)c1 [Example 19, N-(6-Cyano-4-o-tolyl-pyridin-3-yl)-N-methyl-3,5-bis-trifluoromethyl-benzamide]
6.84 | CC1CCCCN1c1ccncc1N(C)C(=O)c1cc(C(F)(F)F)cc(C(F)(F)F)c1 (stereo not shown) [Example 20, N-Methyl-N-(2-methyl-3,4,5,6-tetrahydro-2H-[1,4′]bipyridinyl-3′-yl)-3,5-bis-trifluoromethyl-benzamide]
6.41 | CC1CCCCN1c1ccncc1N(C)C(=O)c1cc(Cl)cc(Cl)c1 (stereo not shown) [Example 21, 3,5-Dichloro-N-methyl-N-(2-methyl-3,4,5,6-tetrahydro-2H-[1,4′]bipyridinyl-3′-yl)-benzamide hydrochloride salt]
7.46 | COc1cc(F)ccc1-c1ccncc1N(Cc1ncco1)C(=O)c1cc(C(F)(F)F)cc(S(C)(=O)=O)c1 [Example 22, N-[4-(4-Fluoro-2-methoxy-phenyl)-pyridin-3-yl]-3-methanesulfonyl-N-oxazol-2-ylmethyl-5-trifluoromethyl-benzamide]
7.42 | Cc1cc(F)ccc1-c1ccncc1N(C)C(=O)c1cc(C(F)(F)F)cc(C(F)(F)F)c1 [Example 23, N-[4-(4-Fluoro-2-methyl-phenyl)-pyridin-3-yl]-N-methyl-3,5-bis-trifluoromethyl-benzamide]
6.84 | Cc1cc(F)ccc1-c1ccncc1N(C)C(=O)c1cc(Cl)cc(Cl)c1 [Example 24, 3,5-Dichloro-N-[4-(4-fluoro-2-methyl-phenyl)-pyridin-3-yl]-N-methyl-benzamide]
7.85 | CN(C(=O)c1cc(C(F)(F)F)cc(C(F)(F)F)c1)c1cnccc1-c1ccccc1F [Example 25, N-[4-(2-Fluoro-phenyl)-pyridin-3-yl]-N-methyl-3,5-bis-trifluoromethyl-benzamide]
6.16 | Cc1ccc(-c2ccncc2N(C)C(=O)c2cc(C(F)(F)F)cc(C(F)(F)F)c2)c(C)c1 [Example 26, N-[4-(2,4-Dimethyl-phenyl)-pyridin-3-yl]-N-methyl-3,5-bis-trifluoromethyl-benzamide]
5.98 | COc1ccc(-c2ccncc2N(C)C(=O)c2cc(C(F)(F)F)cc(C(F)(F)F)c2)c(C)c1 [Example 27, N-[4-(4-Methoxy-2-methyl-phenyl)-pyridin-3-yl]-N-methyl-3,5-bis-trifluoromethyl-benzamide]
6.06 | CN(C(=O)c1cc(C(F)(F)F)cc(C(F)(F)F)c1)c1cnccc1-c1ccccc1C(F)(F)F [Example 28, N-Methyl-3,5-bis-trifluoromethyl-N-[4-(2-trifluoromethyl-phenyl)-pyridin-3-yl]-benzamide]
7.96 | COc1ccccc1-c1ccncc1N(C)C(=O)c1cc(C(F)(F)F)cc(C(F)(F)F)c1 [Example 29, N-[4-(2-Methoxy-phenyl)-pyridin-3-yl]-N-methyl-3,5-bis-trifluoromethyl-benzamide]
5.79 | Cc1cc(Cl)ccc1-c1ccncc1N(C)C(=O)c1cc(C(F)(F)F)cc(C(F)(F)F)c1 [Example 30, N-[4-(4-Chloro-2-methyl-phenyl)-pyridin-3-yl]-N-methyl-3,5-bis-trifluoromethyl-benzamide]
7.54 | CN(C(=O)c1cc(C(F)(F)F)cc(C(F)(F)F)c1)c1cnccc1-c1ccccc1OC(F)(F)F [Example 31, N-Methyl-N-[4-(2-trifluoromethoxy-phenyl)-pyridin-3-yl]-3,5-bis-trifluoromethyl-benzamide]
8.05 | COc1ncccc1-c1ccncc1N(C)C(=O)c1cc(C(F)(F)F)cc(C(F)(F)F)c1 [Example 32, N-(2-Methoxy-[3,4′]bipyridinyl-3′-yl)-N-methyl-3,5-bis-trifluoromethyl-benzamide]
6.46 | Cc1ncccc1-c1ccncc1N(C)C(=O)c1cc(C(F)(F)F)cc(C(F)(F)F)c1 [Example 33, N-Methyl-N-(2-methyl-[3,4′]bipyridinyl-3′-yl)-3,5-bis-trifluoromethyl-benzamide]
6.30 | Cc1cnccc1-c1ccncc1N(C)C(=O)c1cc(C(F)(F)F)cc(C(F)(F)F)c1 [Example 34, N-Methyl-N-(3′-methyl-[4,4′]bipyridinyl-3-yl)-3,5-bis-trifluoromethyl-benzamide]
6.79 | CC(C)Oc1ccccc1-c1ccncc1N(C)C(=O)c1cc(C(F)(F)F)cc(C(F)(F)F)c1 [Example 35, N-[4-(2-Isopropoxy-phenyl)-pyridin-3-yl]-N-methyl-3,5-bis-trifluoromethyl-benzamide]
6.44 | CN(C(=O)c1cc(C(F)(F)F)cc(C(F)(F)F)c1)c1cnccc1-c1ccccc1C#N [Example 36, N-[4-(2-Cyano-phenyl)-pyridin-3-yl]-N-methyl-3,5-bis-trifluoromethyl-benzamide]
